Data on three substances can be found in patent US20240041982A1, “EXTENDED RELEASE HYDROGEL CONJUGATES OF C-NATRIURETIC PEPTIDES” (ProLynx LLC, priority 2020, published 2024).

Bridge positions count the residues as written; N and C are the ends. Ends that are not written are not given here.

For data set [1], the system named is wild-type male mice (FVB/nJ). Briefly: Pharmacodynamics in juvenile mice: growth and bone length by X-ray. It is filed as in vivo. Conditions: QD 70 nmol/kg; after 5 weeks of treatment. The procedure: Three-week old wild-type male mice (FVB/nJ; Charles River Laboratory, Inc) were administered subcutaneous injections of the conjugates of Example 3 at either a weight-adjusted (nmol/kg) or constant (nmol/animal independent of the initial weight) dose over 35 days. For experiments using constant doses/animal, the conjugate of Example 3 wherein R^1=isopropylsulfonyl (conjugate 4A) was administered at either 20 or 50 nmol/mouse; the conjugate of Example 3 wherein R^1=(N,N-dimethylamino)sulfonyl (conjugate 4B) was administered at either 85 or 600 nmol/mouse. For experiments using weight-adjusted doses/animal, conjugate 4A was administered at either 1.5 or 2.2 umol/kg; conjugate 4B was administered at 6.1 umol/kg. Doses were calculated based on the body weight just prior to dosing and performed at approximately the same time of day. Comparator animals were dosed with either [Gln^6,14]CNP-38 or vosoritide at 70 nmol/kg formulated in 30 mM acetic acid pH 4.0 containing 10% (w/v) sucrose and 1% (v/v) benzyl alcohol (Wendt; Breinholt), and control animals were dosed with the formulation buffer (isotonic acetate (10 mM Na Acetate, 143 mM NaCl), pH 5.0, 0.05% Tween 20 buffer containing 1.2% sodium hyaluronate. Daily weight-adjusted doses were calculated based on the body weight just prior to dosing and performed at approximately the same time each day.
Blood collections were made via tail vein with the addition of protease inhibitors (Halt protease inhibitor cocktail, ThermoScientific) and processed with K2EDTA to provide ˜15-20 μL plasma, for analysis of free [Gln^6,14]CNP-38. For the mice treated with the conjugate 4A, blood collection occurred at 0, 24, 168, 192, 336, 360, 504, 528, 672 and 840 hr. For the mice treated with conjugate 4B, blood collection occurred at 0, 24, 168, 336, 504, 672 and 840 hr.
Body weight, tail length and naso-anal length were collected at study initiation and were measured weekly during the in-life treatment period. […] The naso-anal (distance from the tip of the nose to the anus) and the tail length (distance from the anus to the tip of the tail) were measured and recorded. The same ruler was used for all measurements, and all measurements were conducted and recorded in centimeters. Total length (TL) is derived from the addition of the measured tail length and naso-anal length.
On day 35, the mice were anesthetized and in addition to the nasal-anal and tail length measurements, bone length measurements were made by digital X-ray (spine, right femur, right tibia, humerus and ulna). Following deep anesthesia with isoflurane, the mice were placed in the prone position and the length of the spine (lateral view, distance from the most cranial end of the C1 vertebra to the most caudal end of the S4 vertebra and accounting for curvature manually), the right femur (distance from the most proximal femoral head ossification center to the most distal ossification center in dorso-ventral view), the right tibia (distance from the most proximal ossification center to the most distal ossification center in dorso-ventral view), the right humerus (distance from the most proximal ossification center to the most distal ossification center in dorso-ventral view), and the right ulna (distance from the most proximal ossification center to the most distal ossification center in dorso-ventral view) of each mouse were measured by x-ray using a Spectral Imaging Instruments AMI HTX and the associated Aura software.

The next data set deals with T1, NPR-B (Homo sapiens, UniProt P20594).
T1 sequence (P20594 23-1047): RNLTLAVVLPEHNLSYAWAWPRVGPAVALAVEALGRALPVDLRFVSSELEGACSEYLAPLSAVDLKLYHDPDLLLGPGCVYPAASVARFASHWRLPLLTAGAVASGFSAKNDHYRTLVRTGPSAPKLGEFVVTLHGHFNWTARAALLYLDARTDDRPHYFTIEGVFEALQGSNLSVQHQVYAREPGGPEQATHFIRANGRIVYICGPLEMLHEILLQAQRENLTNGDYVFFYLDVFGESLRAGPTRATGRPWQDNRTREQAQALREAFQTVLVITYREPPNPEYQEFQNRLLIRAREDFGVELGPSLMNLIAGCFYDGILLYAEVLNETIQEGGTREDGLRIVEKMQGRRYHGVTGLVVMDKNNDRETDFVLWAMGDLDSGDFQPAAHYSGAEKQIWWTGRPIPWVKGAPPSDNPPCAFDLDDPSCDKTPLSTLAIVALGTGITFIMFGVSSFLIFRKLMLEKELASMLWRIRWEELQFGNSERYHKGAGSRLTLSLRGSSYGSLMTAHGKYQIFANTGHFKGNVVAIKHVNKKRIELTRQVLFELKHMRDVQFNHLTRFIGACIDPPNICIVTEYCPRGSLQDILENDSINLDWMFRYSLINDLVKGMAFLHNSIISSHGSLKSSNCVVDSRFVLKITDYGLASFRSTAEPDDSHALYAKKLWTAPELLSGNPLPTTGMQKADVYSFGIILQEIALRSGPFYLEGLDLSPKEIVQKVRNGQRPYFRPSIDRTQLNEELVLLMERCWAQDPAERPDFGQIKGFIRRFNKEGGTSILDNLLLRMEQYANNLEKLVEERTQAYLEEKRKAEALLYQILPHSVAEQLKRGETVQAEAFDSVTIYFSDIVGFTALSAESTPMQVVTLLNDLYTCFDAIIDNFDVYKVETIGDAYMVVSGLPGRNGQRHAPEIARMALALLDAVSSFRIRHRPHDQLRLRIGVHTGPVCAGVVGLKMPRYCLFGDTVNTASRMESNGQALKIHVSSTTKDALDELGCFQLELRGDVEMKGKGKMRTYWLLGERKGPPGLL
Conditions: physiological concentrations (picomolar); cited from earlier work.

For data set [2] the following is noted: in vivo; cited from earlier work.
For data set [3] the following is noted: in vivo; cited from earlier work. The source holds these as a separate data set.

For the substance “(Gln^6,14)CNP38 (LQEHPQARKYKGAQKKGLSKGCFGLKLDRIGSMSGLGC; disulfide 22-38) [[Gln6, 14] CNP-38]”, in data set [1], the “Femur length % change from vehicle” value is given as “(13.6%)”, the “Humerus length % change from vehicle” value is reported as “(0.8%)”, the “Spine length % change from vehicle” value is listed as “(10.1%)” and the “Tibia length % change from vehicle” value is “(8.7%)”. The “Ulna length % change from vehicle” value in data set [1] is reported as “(5.4%)”.
Regarding CNP22, in the data set with NPR-B, the “affinity for NPR-B relative to ANP and BNP” value is 50-500 times. Moreover, the plasma half-life in data set [2] is roughly 3 min.
The term half-life denotes the time needed for the level to fall by half in the phase considered. For “vosoritide (PGQEHPNARKYKGANKKGLSKGCFGLKLDRIGSMSGLGC; disulfide 23-39)”, in data set [2], the half-life was 20 min. For the same substance, the known side-effects result in data set [3] was “increased heart rate and a drop in arterial blood pressure”.
